Experimental data published in ChEMBL document CHEMBL1201862, “PubChem BioAssay data set” (2004).
Activity calls are given as the source filed them.

Tests used:
[1] = biological target: T1, Corticotropin-releasing factor receptor 2/Corticotropin-releasing factor-binding protein (Homo sapiens, UniProt P24387+Q13324); assay: Dose Response confirmation of uHTS hits for small molecule antagonists of the CRF-binding protein and CRF-R2 receptor complex.; format: functional; settings: read-out: IC50_Mean
T1 sequence (Q13324 whole entry): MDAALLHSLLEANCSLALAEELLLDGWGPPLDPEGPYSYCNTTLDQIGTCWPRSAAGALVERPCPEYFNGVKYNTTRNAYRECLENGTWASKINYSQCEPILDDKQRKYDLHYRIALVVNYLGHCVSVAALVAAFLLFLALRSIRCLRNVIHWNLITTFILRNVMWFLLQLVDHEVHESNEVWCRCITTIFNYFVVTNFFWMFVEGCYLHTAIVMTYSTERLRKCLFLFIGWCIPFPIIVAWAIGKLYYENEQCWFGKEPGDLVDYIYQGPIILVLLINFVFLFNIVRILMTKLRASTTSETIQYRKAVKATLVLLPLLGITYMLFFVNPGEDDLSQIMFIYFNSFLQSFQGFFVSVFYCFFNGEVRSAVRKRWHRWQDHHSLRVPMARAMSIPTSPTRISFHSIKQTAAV
T1 sequence (P24387 whole entry): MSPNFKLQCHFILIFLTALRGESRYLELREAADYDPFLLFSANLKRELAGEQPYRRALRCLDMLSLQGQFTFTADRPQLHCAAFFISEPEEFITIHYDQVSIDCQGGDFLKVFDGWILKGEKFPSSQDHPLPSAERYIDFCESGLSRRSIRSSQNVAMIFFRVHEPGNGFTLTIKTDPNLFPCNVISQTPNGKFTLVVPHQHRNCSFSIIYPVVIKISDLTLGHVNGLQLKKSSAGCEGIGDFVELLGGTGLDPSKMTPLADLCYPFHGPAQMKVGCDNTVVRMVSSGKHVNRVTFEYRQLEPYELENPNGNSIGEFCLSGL

[2] = biological target: T1, Corticotropin-releasing factor receptor 2/Corticotropin-releasing factor-binding protein; assay: activators of CRF receptor 2 with binding protein – uHTS hits, confirmation (AID 602473); format: functional; settings: read-out: EC50_Mean
[3] = inhibitors of intracellular T. cruzi replication, confirmation, NIH3T3 host cells, beta-gal luminescence (AID 2044); format: functional, cell-based;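 note: intracellular parasites grown in NIH/3T3 mouse fibroblasts as host cells; luminescent beta-galactosidase reporter signal from transgenic T. cruzi replicating inside host cells; inhibitors lower the luminescence signal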
INS1 = assay: beta cell apoptosis inhibitors, cytokine rescue, dose response, luminescence, retest (AID 449756); format: functional, cell-based; settings: Rattus norvegicus, INS1;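 note: cell death triggered by IL-1 beta plus TNF-alpha plus IFN-gamma mixture; protective hits raise ATP signal compared with cytokine alone wells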
[4] = cytotoxicity toward NIH3T3 fibroblasts, dose response, counter-screen, cell-based, ATP luminescence, mouse fibroblasts (AID 2010); format: functional;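 note: cells exposed to compound for about 90 hours before reading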
[5] = biological target: T2, Rac GTPase-activating protein 1 (Homo sapiens, UniProt Q9H0H5); assay: MgcRacGAP GTPase-activating activity inhibitors, confirmation, biochemical, ADP Hunter fluorescence, primary and confirmatory (AID 624330); format: functional
T2 sequence (Q9H0H5 whole entry): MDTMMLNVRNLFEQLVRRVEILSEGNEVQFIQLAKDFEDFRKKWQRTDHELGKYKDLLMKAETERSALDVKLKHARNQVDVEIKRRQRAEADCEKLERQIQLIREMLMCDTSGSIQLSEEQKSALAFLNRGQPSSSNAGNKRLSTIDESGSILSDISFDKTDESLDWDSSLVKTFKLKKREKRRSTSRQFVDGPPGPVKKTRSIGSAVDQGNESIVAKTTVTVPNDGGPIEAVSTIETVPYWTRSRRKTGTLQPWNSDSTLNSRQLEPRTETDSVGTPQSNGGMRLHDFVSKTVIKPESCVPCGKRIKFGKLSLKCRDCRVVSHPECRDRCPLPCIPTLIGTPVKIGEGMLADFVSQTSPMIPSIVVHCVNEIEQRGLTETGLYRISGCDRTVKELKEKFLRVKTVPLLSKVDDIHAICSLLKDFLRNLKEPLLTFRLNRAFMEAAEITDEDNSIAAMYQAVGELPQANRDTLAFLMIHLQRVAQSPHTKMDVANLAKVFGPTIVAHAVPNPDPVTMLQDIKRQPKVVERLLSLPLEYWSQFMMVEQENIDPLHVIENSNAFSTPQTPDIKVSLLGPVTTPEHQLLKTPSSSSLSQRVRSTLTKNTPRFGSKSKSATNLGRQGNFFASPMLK

Cytochrome P450 3A4 = Cytochrome P450 3A4 (Homo sapiens, UniProt P08684);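 note: CYP3A4 tested as one member of a cytochrome P450 panel screen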
Cytochrome P450 3A4, sequence (P08684 whole entry): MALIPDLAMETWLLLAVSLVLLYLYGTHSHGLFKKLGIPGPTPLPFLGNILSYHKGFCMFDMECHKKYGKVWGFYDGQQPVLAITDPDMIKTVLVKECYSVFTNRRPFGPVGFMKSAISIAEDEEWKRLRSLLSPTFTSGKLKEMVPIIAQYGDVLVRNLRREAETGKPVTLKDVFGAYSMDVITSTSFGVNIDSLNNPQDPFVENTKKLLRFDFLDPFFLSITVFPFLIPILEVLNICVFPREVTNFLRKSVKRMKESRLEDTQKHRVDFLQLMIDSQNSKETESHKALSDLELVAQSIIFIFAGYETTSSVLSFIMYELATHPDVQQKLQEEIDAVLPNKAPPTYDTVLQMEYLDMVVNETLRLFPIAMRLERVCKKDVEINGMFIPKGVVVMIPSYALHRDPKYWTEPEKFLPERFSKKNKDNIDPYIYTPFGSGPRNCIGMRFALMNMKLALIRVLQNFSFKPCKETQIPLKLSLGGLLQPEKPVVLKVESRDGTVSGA

[6] = Luminescence Cell-Based Dose Response HTS to Identify Inhibitors of 5'UTR Stem-Loop Driven Prion Protein mRNA Translation in H4 Neuroglioblastoma Cells. [Related pubchem assays: 1827 (Project Summary), 1813 (Primary HTS)]; format: functional
[7] = inhibitors of firefly luciferase expression or activity, dose response, H4 neuroglioma cells, luminescence (AID 1990); format: functional, cell-based
[8] = inhibitors of SNCA 5'UTR-driven reporter translation, confirmation, H4 neuroglioma cells, luminescence (AID 1988); format: functional, cell-based
Streptococcus = assay: Group A Streptococcus viability loss, dose response, counter-screen for streptokinase expression inhibitor project, luminescence, BacTiterGlo (AID 1915); format: functional, organism-based;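 note: potency for reduction of bacterial viability or growth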
[9] = tested on: Streptococcus sp. 'group A'; assay: growth inhibition of control SK(-) GAS strain, dose response, counter-screen for streptokinase expression inhibitor project, luminescence, kanamycin, BacTiterGlo, confirmation (AID 1900); format: functional, organism-based
Streptokinase A = biological target: T3, Streptokinase A (Streptococcus pyogenes serotype M1, UniProt P10520); assay: S. pyogenes streptokinase expression inhibitors, potency, dose response, plasminogen activation absorbance, OD405 (AID 1914); format: functional, Streptococcus pyogenes M1 GAS;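 note: secreted streptokinase activity via plasminogen activation per viability signal from cell pellet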
T3 sequence (P10520 whole entry): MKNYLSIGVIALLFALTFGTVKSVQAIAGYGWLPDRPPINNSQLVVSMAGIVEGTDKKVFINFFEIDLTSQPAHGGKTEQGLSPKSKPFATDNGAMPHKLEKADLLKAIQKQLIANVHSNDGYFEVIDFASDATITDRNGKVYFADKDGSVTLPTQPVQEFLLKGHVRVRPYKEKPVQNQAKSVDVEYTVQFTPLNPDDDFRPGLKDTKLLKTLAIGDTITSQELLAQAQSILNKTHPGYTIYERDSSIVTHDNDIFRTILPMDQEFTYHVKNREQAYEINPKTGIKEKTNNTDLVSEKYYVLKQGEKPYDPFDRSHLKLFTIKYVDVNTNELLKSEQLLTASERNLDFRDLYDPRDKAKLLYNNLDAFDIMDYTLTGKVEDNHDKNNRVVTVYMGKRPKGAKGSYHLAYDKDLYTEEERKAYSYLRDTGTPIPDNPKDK

Compound	IC50 [1]	EC50 [2]	IC50 [5]	also measured
O=C1CC(Nc2cc(O)nc(O)n2)C(=O)N1c1ccccc1Cl (centres undefined)	> 47.1 µM (inactive)	> 53 µM (inactive)		
COc1ccc(C(=O)NCC(=O)N/N=C/c2ccc([N+](=O)[O-])s2)cc1OC				EC50 [3]: 0.504 µM (active); AC50 (INS1): 8.94 µM (active); EC50 [4]: > 60 µM (not active)
CC(C)NCC(=O)Nc1c2c(nc3ccccc13)CCC2			53.2 µM (active)	
COc1cc(/C=C/CN2CCN(CCC(C)C)C(CCO)C2)ccc1O (centres undefined)			101 µM (active)	
CCCCCCc1ccc(N2C[C@H](Cc3ccccc3)[C@@H](CC(=O)Nc3ccccc3)C2=O)cc1				AC50 (INS1): 14.2 µM (active)
COc1cccc(/C=N/NC(=O)c2c(-c3ccccc3)noc2C)c1O				AC50 (INS1): 2.5 µM (active)
O=C(Oc1ccc2c(c1)OCO2)c1ccc(Br)c(S(=O)(=O)N2CCOCC2)c1			76.1 µM (active)	
CC(C)(C)N=C(S)Nc1ccc(Nc2ccccc2)cc1			103 µM (active)	AC50 (Cytochrome P450 3A4): 11.2 µM (inconclusive)
O=C(c1ccc2snnc2c1)N1CCN(c2ccccn2)CC1	> 47.1 µM (inactive)	> 53 µM (inactive)		
CNc1nc(NC)nc(NNC(=O)c2ccccc2)n1	> 47.1 µM (inactive)	> 53 µM (inactive)		
O=[N+]([O-])c1cc(C(F)(F)F)ccc1NCCCCNS(=O)(=O)c1ccc(Cl)cc1				AC50 (INS1): 6.5 µM (active)
Cc1ccccc1NS(=O)(=O)c1ccc(C(=O)N(C)CC(=O)Nc2ccccc2Br)cc1	> 47.1 µM (inactive)	> 53 µM (inactive)		
O=C(CNC(=O)c1cccnc1)N/N=C/c1ccc(O)cc1O			97.4 µM (active)	
COc1ccccc1Nc1nnc(S)s1			57.1 µM (active)	
CCn1c(C)nc2cc(C(=O)NN=Cc3ccc([N+](=O)[O-])cc3)ccc21	> 47.1 µM (inactive)	> 53 µM (inactive)		
C[C@H](NC(=O)[C@@H]1Cc2ccccc2CN1)C(=O)NC1CCCCC1	> 47.1 µM (inactive)	> 53 µM (inactive)		

Compound	IC50 [1]	EC50 [2]	IC50 [5]	also measured
CC(NC(=O)COC(=O)C12CC3CC(CC(Br)(C3)C1)C2)c1ccccc1 (centres undefined)	> 47.1 µM (inactive)	> 53 µM (inactive)		
Nc1ccc2c(c1)Cc1cc(N)c(Br)cc1-2			7.57 µM (active)	
O=[N+]([O-])c1cccc(CN2CCN(Cc3ccco3)CC2)c1			98.5 µM (active)	
Cc1ccc(C)c(C(C)NC(=O)c2ccccc2Br)c1 (centres undefined)	> 47.1 µM (inactive)	> 53 µM (inactive)		
CCOc1ccc(NC(=S)N2CCc3cc(OC)c(OC)cc3C2COc2ccc3c(C)cc(=O)oc3c2)cc1 (centres undefined)				EC50 [6]: 39.9 µM (active); EC50 [7]: 30.4 µM (active); EC50 [8]: > 120 µM (not active)
O=C(COc1ccccc1)N1CCN(CC2CC3C=CC2C3)CC1 (centres undefined)			175 µM (active)	
CCC(C)Nc1nc(N)c([N+](=O)[O-])c(Nc2cc(OC)ccc2OC)n1 (centres undefined)				EC50 [6]: 12.8 µM (active); EC50 [7]: 10.7 µM (active); EC50 (Streptococcus): 11.9 µM (active); EC50 [9]: 2.35 µM (active); EC50 (Streptokinase A): > 150 µM (not active); EC50 [8]: 13.3 µM (active)
CC1(C)CC(=O)C=C(Nc2ccc(O)cc2)C1			20.2 µM (active)	
C/C(=N\Nc1nc(C)cc(-c2ccccc2)n1)c1ccc(F)cc1				AC50 (INS1): 3.13 µM (active)
COc1ccccc1N1CCN(C(=O)/C=C/c2cccs2)CC1	> 47.1 µM (inactive)	> 53 µM (inactive)		
Cc1ccc(C)c(NC(S)=NCCCN2CCOCC2)c1	> 47.1 µM (inactive)	> 53 µM (inactive)		
C/C(=N\NC(=O)c1ccc(NS(=O)(=O)c2cccs2)cc1)c1ccccc1	> 47.1 µM (inactive)	> 53 µM (inactive)		
COC(=O)c1[nH]c2ccccc2c1NC(=O)Oc1ccccc1			15.9 µM (active)	
O=C1C=C(c2ccc(F)cc2OCc2ccccc2)C[C@@H](c2ccc(Cl)cc2)C1				AC50 (INS1): 4.89 µM (active)
N=c1nc(N)nc2n1NC(c1ccc(F)cc1)=CS2				EC50 [6]: > 120 µM (not active); EC50 [7]: > 120 µM (not active); EC50 [8]: 13.7 µM (active)
